According to US10640466B2, “Anthracene based compounds and their uses” (UNIVERSITY OF HERTFORDSHIRE HIGHER EDUCATION CORPORATION, priority 2015, dated 2020):

Experiments:
[1] = target: T1, S100P/RAGE function (Homo sapiens, UniProt P25815); details: in vitro studies; cited from earlier work
T1 sequence (P25815 1-95): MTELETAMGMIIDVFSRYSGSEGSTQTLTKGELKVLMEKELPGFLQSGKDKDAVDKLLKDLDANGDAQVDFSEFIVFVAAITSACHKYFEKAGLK

[2] = system: Panc-1 cells; assay: Matrigel invasion assay, Panc-1; format: cell-based, Human; details: data not shown
Procedure: (§1) Compound 2 was one of seventeen compounds from the virtual screen that were subjected to a Matrigel invasion assay (Corning®, USA) screening against BxPC-3 and Panc-1 pancreatic cancer cells.
(§2) All reagents for in vitro studies were purchased from Sigma Aldrich (Dorset, UK) unless otherwise specified. Human pancreatic cancer cells, Panc-1 (ATCC® CRL-1469™) and BxPC-3 (ATCC® CRL-1687™), were purchased from LGC Standards (LGC Ltd., Middlesex, UK). Both were cultured in their respective culture medium—Dulbecco Modified Eagle Medium (DMEM) for Panc-1 and RPMI-1640 for BxPC-3 supplemented with 10% v/v Foetal Bovine Serum (FBS), 200U Penicillin/Streptomycin solution, and 2 mM L-glutamine. Both cells were maintained at 37° C. in a 5% humidified CO2 atmosphere and passaged at least three times a week when they have reached about 70% confluency using a standardised trypsinisation protocol. […]
(§3) Matrigel invasion assay were carried out using transwell inserts with 8-μm pore size (BD-Bioscience, Oxford, UK) and Biocoat Matrigel Invasion plates (BD-Bioscience, Oxford, UK). […] The number of cells from five adjacent fields of view from each of the membranes were counted at a ×10 magnification to obtain the average number of cells per field. Data are expressed as the percent invasion through the Matrigel matrix and membrane relative to the invasion through the control membrane.

[3] = system: Panc-1 cells; assay: MTS cell proliferation assay, Panc-1; format: cell-based, Human
Procedure: (§4) FIG. 3 illustrates the anti-proliferative effect of cromolyn on pancreatic cancer cells. FIG. 3A illustrates BxPC-3, and FIG. 3B illustrates Panc-1 cells. Cells were seeded overnight (10^4 cells/well) in 96 well plates in complete medium supplemented with 10% v/v FBS, 2 mM L-glutamine and 200 U Penicillin/Streptomycin solution. Compounds were serially diluted into the wells and cell proliferation assessed using MTS assay after 24, 48, and 72 hours. Results are expressed as mean±SEM with n=4. P value of <0.05 (*), <0.01 (**), <0.001 (***) and <0.0001 (****) was determined relative to control using 2-Way ANOVA. Post-test comparisons were made using Bonferroni test at 95% confidence interval;
FIG. 5 illustrates anti-proliferative effect of compounds 2 (A), 3 (B), 8 (C), 26 (D) and 7 (E) on Panc-1 cells. Panc-1 cells were seeded overnight (10^4 cells/well) in 96-well plates in complete DMEM medium supplemented with 10% v/v FBS, 1% v/v L-glutamine and 200 U Penicillin/Streptomycin solution. Compounds were serially diluted into the wells and cell proliferation analysed using MTS assay after 24, 48, and 72 hours. Results are expressed as mean±SEM with n=4. P value of <0.05 (*), <0.01 (**), <0.001 (***) and <0.0001 (****) was determined relative to control using 2-Way ANOVA. Post-test comparisons were made Bonferroni test at 95% confidence interval; and
as §2, with “protocol. Cromolyn was purchased as a sodium salt while compounds 2, 3, 7, 8 and 26 were synthesised, characterised and purified at the University of Hertfordshire.” for “protocol.”
Pancreatic cancer cells (1×10^5 cells/mL) in 100 μL complete cell culture medium were plated in 96-well plates (Sigma-Aldrich, Poole, UK) and incubated overnight at 37° C., 5% CO2 atmosphere. […] Plates were incubated for 90 minutes before reading the absorbance at 492 nm using a Multiskan Ascent 96/384 plate reader (Thermo Scientific, Loughborough, UK). […]
For data analysis, background noise (media only wells) was subtracted from all wells. DMSO absorbance at 1, 10, 100 and 1000 μM was subtracted from wells with sample compounds before an average of all four replicates was taken. […]

[4] = system: BxPC-3 cells; assay: Matrigel invasion assay, BxPC-3; format: cell-based, Human; details: 48 h
Procedure: FIG. 2 illustrates the effect of 2 and cromolyn (100 μM) BxPC-3 invasion. FIG. 2A illustrates the results when compound 2 was added to serum-free medium in the upper compartment of Matrigel invasion chamber along with the BxPC-3 cells; while media with 10% serum was added to lower chamber. After 48 hours, cells that had invaded onto the lower surface of the membrane were stained using Giemsa stain and cells in 5 different fields were counted for invasion studies. Results are expressed as the mean±SEM. P value of <0.05 (*), <0.01 (**) and <0.001 (***) was determined relative to control using 2-Way ANOVA. Photographs of representative membranes for cells after Giemsa staining when the cells were exposed in FIGS. 2B, 2C, 2D and 2E;
as §1
as §2, with “L-glutamine.” for “L-glutamine. Both cells were maintained at 37° C. in a 5% humidified CO2 atmosphere and passaged at least three times a week when they have reached about 70% confluency using a standardised trypsinisation protocol.”
as §3

[5] = system: BxPC-3 cells; assay: MTS cell proliferation assay, BxPC-3; format: cell-based, Human; details: for anti-proliferative effect on BxPC-3: 1 and 10 μM
Procedure: as §4
FIG. 4 illustrates the anti-proliferative effects of compounds 2 (A), 3 (B), 8 (C), 26 (D) and 7 (E) on BxPC-3 cells. BxPC-3 cells were seeded overnight (10^4 cells/well) in 96-well plates in complete RPMI-1640 medium supplemented with 10% v/v FBS, 2 mM L-glutamine and 200 U Penicillin/Streptomycin solution. Compounds were serially diluted into the wells and cell proliferation assessed using MTS assay after 24, 48, and 72 hours. Results are expressed as mean±SEM with n=4. P value of <0.05 (*), <0.01 (**), <0.001 (***) and <0.0001 (****) was determined relative to control using 2-Way ANOVA. Post-test comparisons were made using Bonferroni test at 95% confidence interval;
All reagents for in vitro studies were purchased from Sigma Aldrich (Dorset, UK) unless otherwise specified. Human pancreatic cancer cells, Panc-1 (ATCC® CRL-1469™) and BxPC-3 (ATCC® CRL-1687™), were purchased from LGC Standards (LGC Ltd., Middlesex, UK). Both were cultured in their respective culture medium—Dulbecco Modified Eagle Medium (DMEM) for Panc-1 and RPMI-1640 for BxPC-3 supplemented with 10% v/v Foetal Bovine Serum (FBS), 200U Penicillin/Streptomycin solution, and 2 mM L-glutamine. Both cells were maintained at 37° C. in a 5% humidified CO2 atmosphere and passaged at least three times a week when they have reached about 70% confluency using a standardised trypsinisation protocol. Cromolyn was purchased as a sodium salt while compounds 2, 3, 7, 8 and 26 were synthesised, characterised and purified at the University of Hertfordshire. To prepare stock concentrations (10 mM), cromolyn was dissolved in distilled water while compounds 2, 3, 7, 8 and 26 were dissolved in DMSO.
(§5) Pancreatic cancer cells (1×10^5 cells/mL) in 100 μL complete cell culture medium were plated in 96-well plates (Sigma-Aldrich, Poole, UK) and incubated overnight at 37° C., 5% CO2 atmosphere. Cromolyn and compounds 2, 3, 7, 8 and 26 were prepared from stocks of 10 mM in serum-free medium and serially diluted to give 1, 10, 100 and 1000 μM. Control samples for this study included cells without any drugs, cell samples with DMSO at the corresponding concentration(s) and media-only samples. Cells were incubated with test compounds for 24, 48 and 72 h. At each time point i.e. 24, 48 and 72 h, CellTiter 960 AQueous Non-Radioactive Cell Proliferation Assay (MTS) (Promega, UK) was added to each well (1:5). Plates were incubated for 90 minutes before reading the absorbance at 492 nm using a Multiskan Ascent 96/384 plate reader (Thermo Scientific, Loughborough, UK). The experiments were repeated three times.
For data analysis, background noise (media only wells) was subtracted from all wells. DMSO absorbance at 1, 10, 100 and 1000 μM was subtracted from wells with sample compounds before an average of all four replicates was taken. Data is plotted as mean from three repeats ±SEM with p value set at 0.05.

[6] = Solubility in the culture media of the proliferation assay; format: physicochemical; details: at 100 μM and above
Procedure: as §5

[7] = system: BxPC-3 cells; assay: Trypan blue counting of BxPC-3 cells; format: cell-based, Human; details: 1 μM
[8] = target: T2, S100P binding to RAGE (Homo sapiens, UniProt P25815); assay: S100P/RAGE functional assay (ELISA of S100P-RAGE binding); details: initial results
T2 sequence (P25815 1-95): T1 sequence (P25815 1-95)
Procedure: FIGS. 6A to 6H illustrate the effect of drugs on the binding between 1 μM S100P and 30 nM RAGE in ELISA assay wherein n=3 from one plate.
ELISA assay of S100P-RAGE binding was carried out using the method of Padilla et al. (Padilla, L., Dakhel, S., & Hernandez, J. (2014). S100 to receptor for advanced glycation end-products binding assay: Looking for inhibitors. Biochemical and Biophysical Research Communications, 446(1), 404-409. doi:10.1016/j.bbrc.2014.02.143). FIGS. 6A to 6H illustrate the effect of drugs on the binding between 1 μM S100P and 30 nM RAGE in ELISA assay wherein n=3 from one plate.

[9] = in vivo; cited from earlier work
[10] = except at the higher concentration of 1000 μM

## 5-methyl cromolyn
[1]
  concentration inhibiting S100P/RAGE function: 100 nmol/L

## O=C(O)c1cccc(N2C(=O)C3C4c5ccccc5C([N+](=O)[O-])(c5ccccc54)C3C2=O)c1 (centres unmarked) [Compound 2, 3-(9-Nitro-12,14-dioxo-9,10-dihydro-9,10-[3,4]epipyrroloanthracen-13-yl)benzoic acid]
[2]
  effect on invasion of Panc-1 cells: No effect
[3]
  anti-proliferation effect on Panc-1 cells: a similar effect was also observed
[4]; 100 μM
  reduction in invasion of BxPC-3 cells across the Matrigel matrix: 17%
[4]; 500 μM
  reduction in invasion of BxPC-3 cells across the Matrigel matrix: 100%
[5]; all three concentrations, after 72 h, p<0.001
  inhibition of growth of BxPC-3 relative to control: noticeable inhibition of growth

## CCOC(=O)c1cccc(N2C(=O)C3C4c5ccccc5C([N+](=O)[O-])(c5ccccc54)C3C2=O)c1 (centres unmarked) [Compound 3, Ethyl 3-(9-nitro-12,14-dioxo-9,10-dihydro-9,10-[3,4]epipyrroloanthracen-13-yl)benzoate]
[6]
  solubility issues in the culture media: precipitating in the culture media
[5]; after 24 h
  anti-proliferative effect on BxPC-3 compared to 2: more pronounced anti-proliferative effect
[5]; after 48 h
  state of BxPC-3 cells compared to the control: the cells appear to be recovering albeit only slightly

## O=C1C2C3c4ccccc4C([N+](=O)[O-])(c4ccccc43)C2C(=O)N1c1ccccc1 (centres unmarked) [Compound 7, 9-Nitro-13-phenyl-9,10-dihydro-9,10-[3,4]epipyrroloanthracene-12,14-dione]
[3]
  anti-proliferation effect on Panc-1 cells: inhibition was unfortunately observed
[6]
  solubility issues in the culture media: precipitating in the culture media
[5]
  anti-proliferative effect on BxPC-3: inhibited proliferation

## O=C(O)c1ccc(N2C(=O)C3C4c5ccccc5C([N+](=O)[O-])(c5ccccc54)C3C2=O)cc1 (centres unmarked) [Compound 8, 4-(9-Nitro-12,14-dioxo-9,10-dihydro-9,10-[3,4]epipyrroloanthracen-13-yl)benzoic acid]
[7]
  viability of BxPC-3 cells by trypan blue counting: still viable
[6]
  solubility issues in the culture media: precipitating in the culture media
[8]
  inhibition of S100P binding to RAGE: nanomolar inhibition
[5]; 1 μM
  metabolic activity of BxPC-3 cells: no metabolic activity was observed
[5]
  anti-proliferative effect on BxPC-3: more pronounced

## O=C(O)c1cccc(N2C(=O)C3C4c5ccccc5C(c5ccccc54)C3C2=O)c1 (centres unmarked) [Compound 26, 3-(12,14-Dioxo-9,10-dihydro-9,10-[3,4]epipyrroloanthracen-13-yl)benzoic acid]
[3]
  anti-proliferation effect on Panc-1 cells: inhibition was unfortunately observed
[5]
  anti-proliferative effect on BxPC-3: inhibited proliferation

## O=C(O)c1cc(=O)c2c(OCC(O)COc3cccc4oc(C(=O)O)cc(=O)c34)cccc2o1 [cromolyn, reference compound]
[3]; [10]
  effect against the proliferation of Panc-1 cells: no significant effect
[4]; 100 μM
  reduction in invasion of BxPC-3 cells across the Matrigel matrix: 20%
[9]
  bioavailability: low bioavailability
[5]; [10]
  effect against the proliferation of BxPC-3 cells: no significant effect
